In PMC4728427, “Mechanism of allosteric activation of TMEM16A/ANO1 channels by a commonly used chloride channel blocker” (British Journal of Pharmacology, 2016):
Like-named read-outs stand apart in the source and are kept apart here.

Columns and labels:
human TMEM16A = biological target: human TMEM16A; parameters: method as in Bradley et al. (2014); details: +80 mV, ref Bradley et al. (2014); cited from earlier work
Mouse TMEM16A = biological target: T1, Mouse TMEM16A (Mus musculus, UniProt Q8BHY3); assay: Time-course of current block analysed by Langmuir formalism (kon, koff), 12.5 μM [Ca2+]i; assay type: cell-based; details: for Ki: read-out: Ki calculated as koff/kon
T1 construct: expressed in transfected cells; host or cells: HEK-293T
T1 sequence (Q8BHY3 1-960): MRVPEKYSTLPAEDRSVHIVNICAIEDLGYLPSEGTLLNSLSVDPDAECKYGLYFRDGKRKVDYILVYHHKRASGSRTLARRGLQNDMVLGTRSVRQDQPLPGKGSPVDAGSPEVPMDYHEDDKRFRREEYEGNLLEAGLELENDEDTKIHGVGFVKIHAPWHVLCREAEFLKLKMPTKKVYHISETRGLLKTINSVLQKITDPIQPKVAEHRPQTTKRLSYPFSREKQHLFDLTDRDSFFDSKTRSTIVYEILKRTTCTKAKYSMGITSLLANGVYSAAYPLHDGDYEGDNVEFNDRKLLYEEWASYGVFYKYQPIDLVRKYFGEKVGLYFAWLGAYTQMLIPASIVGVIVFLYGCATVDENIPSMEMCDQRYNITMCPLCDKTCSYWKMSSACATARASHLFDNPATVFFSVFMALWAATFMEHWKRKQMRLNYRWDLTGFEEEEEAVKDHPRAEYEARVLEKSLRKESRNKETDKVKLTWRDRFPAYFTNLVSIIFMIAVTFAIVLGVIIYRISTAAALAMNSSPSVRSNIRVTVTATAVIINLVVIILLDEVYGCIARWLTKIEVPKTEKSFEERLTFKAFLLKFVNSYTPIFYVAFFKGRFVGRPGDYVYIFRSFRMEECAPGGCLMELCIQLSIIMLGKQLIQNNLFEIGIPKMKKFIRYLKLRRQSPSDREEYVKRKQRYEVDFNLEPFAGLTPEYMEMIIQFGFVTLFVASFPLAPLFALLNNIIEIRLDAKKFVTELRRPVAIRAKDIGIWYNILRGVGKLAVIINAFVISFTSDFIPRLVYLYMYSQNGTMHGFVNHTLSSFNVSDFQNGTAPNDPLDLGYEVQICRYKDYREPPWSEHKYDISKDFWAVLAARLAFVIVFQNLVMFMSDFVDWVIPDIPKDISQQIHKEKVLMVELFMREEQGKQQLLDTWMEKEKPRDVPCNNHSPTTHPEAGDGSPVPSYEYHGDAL
Protocol: To investigate the precise mechanism by which extracellular A9C inhibits TMEM16A channels, macroscopic whole‐cell currents were recorded in the presence of 12.5 μM [Ca^2+]i and in response to 250 ms steps to various V m test pulse from a holding V m of −70 mV. The negative holding V m was used to prevent channel block before the test pulse was elicited. […] The time‐course of this decrease was described by a single‐exponential function characterized by a time constant τ B. The extent of the decrease in current was measured for various [A9C]ext and various V m test pulse and then plotted relative to the current measured in the absence of A9C (I 0) (Figure 3B). The γ values were close to 1 at each V m. In contrast, K i decreased as the V m was increased (Figure 3C). […] Thus, A9C appeared to block TMEM16A channels according to a Woodhull mechanism, consistent with a single A9C molecule blocking the channel pore.
The K i at various V m can also be estimated from analysis of the time‐course of current inhibition at various V m (see Supporting Information for details). K i estimated from this analysis were plotted against the V m in Figure 3C (open symbols). It is clear that K i estimated in this way is similar to the K i estimated from the Hill fit of the dose–response curves (filled symbols). […]
SUPPLEMENTARY INFORMATION
TMEM16A currents were measured with the whole-cell or inside-out configuration of
the patch-clamp technique using an Axon 200B amplifier (Molecular Devices, USA)
controlled with GE-pulse software (http://users.ge.ibf.cnr.it/pusch/programs-mik.htm).
Currents were filtered at 2-5 kHz and sampled at 10 kHz, unless stated otherwise.
Pipettes were prepared from borosilicate glass capillary tubes (Harvard Apparatus,
USA) using a Narishige PC-10 pipette puller (Narishige, Japan). Pipette tip diameter
yielded a resistance of 2.2 to 2.8 MΩ in the working solutions. The bath was grounded
through a 3 M KCl agar bridge connected to a Ag-AgCl reference electrode. In whole-
cell recordings, the series resistance was usually compensated by ≥70 % to achieve a
maximal effective series resistance generally lower than ~5 MΩ. To allow for
equilibration of the pipette solution with the cell interior, recordings started 5 min after
establishing the whole-cell configuration (Manoury, Tamuleviciute & Tammaro, 2010).
Experiments were conducted at 20-22 °C. The cell capacitance was assessed by
measuring the area beneath a capacitive transient elicited by a 10 mV step or via the
cell capacity compensation circuit of the amplifier.
Estimation of Ki at various Vm using the Langmuir formalism
Detailed kinetic analysis of TMEM16A channel activity is likely to require complex
models to account for the effects of Ca2+ and voltage on channel gating (Hartzell,
Putzier & Arreola, 2005). However, a simplified two-state kinetic scheme may be
applicable in conditions in which high [Ca2+]i is maintained to maximally activate the
TMEM16A channel. Under these conditions, and assuming that a molecule of A9C
binding into the pore of a TMEM16A channel results in the complete block of Cl- fluxes,
the Langmuir formalism applies:
Where O represents the conductive state and OB(A9C) is the A9C-blocked state. kon and
koff are the association and dissociation constant, respectively and Ki = koff/kon is the
apparent equilibrium dissociation constant.
The scheme (I) refers to the following differential equations: […]
(1 picture or pasted object on this page, not shown here)
Where O and OB(A9C) describe the probability of being open (unliganded) or blocked,
Thus, in the presence of a fixed [A9C]ext, when the Vm is stepped to a defined test-pulse
Where O∞ is the value of O(t) at the steady state and O(0) is the value of O(t) at the
beginning of the test pulse while τB is the time constant.
fitted with supplementary equation 3 and the resulting τB-1 plotted versus [A9C]ext
(Suppl. Fig.2). Supplementary equation 5 was used to fit the τB-1 obtained at a given Vm, […]

[1] = tested on: native CaCCs in rabbit pulmonary artery smooth muscle cells; details: cited from earlier work

Compound: O=C(O)c1c2ccccc2cc2ccccc12 [A9C, Anthracene‐9‐carboxylic acid]
- Ki (human TMEM16A): ~60 µM
- koff (Mouse TMEM16A; Vm 20 mV): 94 ± 5 s⁻¹
- Ki (Mouse TMEM16A; Vm 20 mV): 168 µM
- koff (Mouse TMEM16A; Vm 40 mV): 71 ± 9 s⁻¹
- Ki (Mouse TMEM16A; Vm 40 mV): 104 µM
- koff (Mouse TMEM16A; Vm 60 mV): 49 ± 13 s⁻¹
- Ki (Mouse TMEM16A; Vm 60 mV): 62 µM
- koff (Mouse TMEM16A; Vm 80 mV): 34 ± 9 s⁻¹
- Ki (Mouse TMEM16A; Vm 80 mV): 38 µM
- koff (Mouse TMEM16A; Vm 100 mV): 12 ± 25 s⁻¹
- Ki (Mouse TMEM16A; Vm 100 mV): 12 µM
- koff (Mouse TMEM16A; Vm 120 mV): 21 ± 17 s⁻¹
- Ki (Mouse TMEM16A; Vm 120 mV): 19 µM
- E rev of native CaCC currents ([1]; ref Piper and Greenwood (2003)): did not change
- native CaCC tail current increase ([1]; −80 mV, 500 μM A9C, ref Piper and Greenwood, 2003): ~ 3 fold
